We go through 16 compounds from US20110136801A1, “Novel Compounds” (Dainippon Sumitomo Pharma Co. Ltd., priority 2009, published 2011).

pEC50: −log10 of the molar value.

For orientation: pEC50 means −log10 of the EC50, conventionally taken in molar units.

In one test the test system is Male Brown Norway rats. Nature of the test: Antigen-induced pulmonary inflammation in a rat asthma model (eosinophils and Th2 cytokines in BALF). The note with it: BALF 48 hours after challenge. The test is classed as in vivo. How it is done: Rats were sensitized and challenged to produce allergic airway inflammation in a similar manner to that described by Underwood et al (British Journal of Pharmacology 2002; 137: 263-275, 2002). Male Brown Norway rats were sensitized subcutaneously with ovalbumin (OVA) and aluminum hydroxide on day 0, and challenged with aerosolized OVA solution on day 14. The test compound was administered twice intratracheally 24 hours before and 24 hours after the OVA-challenge and bronchoalveolar lavage fluid (BALF) was collected 48 hours after the OVA-challenge. Then eosinophils and Th2 cytokines (IL-5 and IL-13) in the BALF were measured to evaluate efficacy of the test compounds of this invention.

The target in another test is T1, human TLR7 (Homo sapiens, UniProt Q9NYK1).
T1 construct: expressed in transfected cells; host or cells: HEK293 cell line stably expressing the pNiFty2-SEAP reporter plasmid; TLR7 in pUNO vector, blasticidin selection
T1 sequence (Q9NYK1 27-1049): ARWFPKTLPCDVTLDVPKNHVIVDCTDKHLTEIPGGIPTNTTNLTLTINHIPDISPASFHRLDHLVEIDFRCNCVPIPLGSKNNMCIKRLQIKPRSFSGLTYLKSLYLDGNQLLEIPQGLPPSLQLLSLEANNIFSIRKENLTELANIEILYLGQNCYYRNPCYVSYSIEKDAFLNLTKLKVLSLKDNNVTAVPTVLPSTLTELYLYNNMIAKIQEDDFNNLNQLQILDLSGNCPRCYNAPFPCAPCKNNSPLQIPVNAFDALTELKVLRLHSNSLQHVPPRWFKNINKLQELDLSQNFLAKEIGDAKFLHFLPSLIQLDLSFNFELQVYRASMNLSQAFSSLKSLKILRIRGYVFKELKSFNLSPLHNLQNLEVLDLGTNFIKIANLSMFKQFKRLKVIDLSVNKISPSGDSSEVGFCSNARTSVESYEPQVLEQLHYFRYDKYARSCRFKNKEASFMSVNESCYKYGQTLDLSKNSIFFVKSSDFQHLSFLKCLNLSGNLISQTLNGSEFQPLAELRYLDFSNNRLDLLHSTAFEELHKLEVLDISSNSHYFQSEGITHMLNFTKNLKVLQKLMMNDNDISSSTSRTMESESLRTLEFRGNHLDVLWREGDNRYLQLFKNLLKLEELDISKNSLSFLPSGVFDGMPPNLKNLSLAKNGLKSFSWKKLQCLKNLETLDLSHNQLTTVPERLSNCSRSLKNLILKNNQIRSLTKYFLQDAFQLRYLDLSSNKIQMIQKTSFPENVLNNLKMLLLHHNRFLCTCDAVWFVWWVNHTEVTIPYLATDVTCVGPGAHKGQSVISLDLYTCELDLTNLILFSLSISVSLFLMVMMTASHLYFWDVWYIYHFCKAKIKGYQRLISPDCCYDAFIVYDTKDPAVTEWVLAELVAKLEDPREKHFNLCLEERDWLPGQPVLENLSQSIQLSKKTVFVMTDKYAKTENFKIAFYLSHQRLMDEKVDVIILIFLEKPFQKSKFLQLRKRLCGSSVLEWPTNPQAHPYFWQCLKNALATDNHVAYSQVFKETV
Nature of the test: Human TLR7 Assay (SEAP reporter in HEK293 cells).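 Note: Read-out is secreted alkaline phosphatase made under an NFkB/ELAM-1 composite promoter, reporting TLR7-triggered NFkB activation.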 It counts as cell-based. As to conditions: HEK293 cell line expressing human TLR7 and pNiFty2-SEAP reporter, overnight incubation at 37° C., 0.1% DMSO; read-out: hTLR7 EC50.

Where [1] appears, read: 0.1 mg/kg intratracheally 24 hours before and 24 hours after OVA-challenge.
[2] abbreviates: 1.0 mg/kg intratracheally 24 hours before and 24 hours after OVA-challenge.

Source text for human TLR7: The most common variant sequence of human TLR7 (represented by the EMBL sequence AF240467) was cloned into the mammalian cell expression vector pUNO and transfected into a HEK293 cell line already stably expressing the pNiFty2-SEAP reporter plasmid; integration of the reporter gene was maintained by selection with the antibiotic zeocin. Transfectants with stable TLR7 expression were selected using the antibiotic blasticidin. In this reporter cell-line, expression of secreted alkaline phosphatase (SEAP) is controlled by an NFkB/ELAM-1 composite promoter comprising five NFkB sites combined with the proximal ELAM-1 promoter. TLR signaling leads to the translocation of NFkB and activation of the promoter results in expression of the SEAP gene. TLR7-specific activation was assessed by determining the level of SEAP produced following overnight incubation of the cells at 37° C. with the standard compound in the presence of 0.1% (v/v) dimethylsulfoxide (DMSO). Concentration dependent induction of SEAP production by compounds was expressed as the concentration of compound which produced half of the maximal level of SEAP induction for that compound (EC50).

Consider `CCCCc1nc2c(N)nc3ccccc3c2n1CCCN(Cc1cccc(OCC(=O)OC)c1)C(=O)CN(C)C` [Example 9, Methyl (3-{[[3-(4-amino-2-butyl-1H-imidazo[4,5-c]quinolin-1-yl)propyl](N,N-dimethylglycyl)amino]methyl}phenoxy)acetate], for which, in the test on Male Brown Norway rats (setting [1]), the “Eosinophiles in BALF, inhibition (%) to OVA-Challenge control” value (shortened to “Eosinophiles in BALF, inhibition (%)”) is reported as 53%; the “IL-5 in BALF, inhibition (%) to OVA-Challenge control” value (from here on “IL-5 in BALF, inhibition (%)”) is on record as 66%; the “IL-13 in BALF, inhibition (%) to OVA-Challenge control” value (“IL-13 in BALF, inhibition (%)” for short) is given as 89%. In the test with Male Brown Norway rats (setting [2]), the “Eosinophiles in BALF, inhibition (%)” value worked out at 77%; the “IL-5 in BALF, inhibition (%)” value was found to be 72%; the “IL-13 in BALF, inhibition (%)” value was determined as 85%.
For the compound `CCN(CC)CC(=O)N(CCCn1c(CCOC)nc2c(N)nc3ccccc3c21)Cc1cccc(OCC(=O)OC(C)C)c1F` [Example 94, Isopropyl 2-{3-[(N-{3-[4-amino-2-(2-methoxyethyl)-1H-imidazo[4,5-c]quinolin-1-yl]propyl}-2-{diethylamino}acetamido)methy]-2-fluorophenoxy}acetate], on human TLR7, the negative-log EC50 (pEC50) was 7.55. Also, in the test on Male Brown Norway rats (setting [1]), the “Eosinophiles in BALF, inhibition (%)” value came out at 68%; the “IL-5 in BALF, inhibition (%)” value worked out at 34%; the “IL-13 in BALF, inhibition (%)” value is on record as 50%. Moreover, in the test on Male Brown Norway rats (setting [2]), the “Eosinophiles in BALF, inhibition (%)” value worked out at 91%; the “IL-5 in BALF, inhibition (%)” value is on record as 90%; the “IL-13 in BALF, inhibition (%)” value is 82%.
As for `CCN(CC)CC(=O)N(CCCn1c(CCOC)nc2c(N)nc3ccccc3c21)Cc1cccc(OCC(=O)OC(C)C)c1` [Example 27, Isopropyl 2-{3-[(N-{3-[4-amino-2-(2-methoxyethyl)-1H-imidazo[4,5-c]quinolin-1-yl]propyl}-2-(diethylamino)acetamido)methyl]phenoxy}acetate], the pEC50 at human TLR7 is 7.18. Also, in the test on Male Brown Norway rats (setting [1]), the “Eosinophiles in BALF, inhibition (%)” value was determined as 64%; the “IL-5 in BALF, inhibition (%)” value came to 41%; the “IL-13 in BALF, inhibition (%)” value is 72%. In the test with Male Brown Norway rats (setting [2]), the “Eosinophiles in BALF, inhibition (%)” value was 89%; the “IL-5 in BALF, inhibition (%)” value was found to be 90%; the “IL-13 in BALF, inhibition (%)” value amounted to 88%.
`CCCOC(=O)COc1cccc(CN(CCCn2c(CCOC)nc3c(N)nc4ccccc4c32)C(=O)CN(CC)CC)c1` [Example 26, Propyl 2-{3-[(N-{3-[4-amino-2-(2-methoxyethyl)-1H-imidazo[4,5-c]quinolin-1-yl]propyl}-2-(diethylamino)acetamido)methyl]phenoxy}acetate]: on human TLR7, the pEC50 was 7.26.
The same measure, in the same setting: the result for `CCOC(=O)COc1cccc(CN(CCCCn2c(CCOC)nc3c(N)nc4ccccc4c32)C(=O)NCCN2CCCCC2)c1` [Example 126, Ethyl 2-{3-[(1-{4-[4-amino-2-(2-methoxyethyl)-1H-imidazo[4,5-c]quinolin-1-yl]butyl}-3-{2-(piperidin-1-yl)ethyl}ureido)methyl]phenoxy}acetate] reads 7.33.
With `CCN(CC)CC(=O)N(CCCn1c(CCOC)nc2c(N)nc3ccccc3c21)Cc1ccccc1OCC(=O)OC` [Example 40, Methyl 2-{2-[(N-{3-[4-amino-2-(2-methoxyethyl)-1H-imidazo[4,5-c]quinolin-1-yl]propyl}-2-(diethylamino)acetamido)methyl]phenoxy}acetate], the pEC50 on human TLR7 is 6.61.
Turning to `CCN(CC)CC(=O)N(CCCn1c(CCOC)nc2c(N)nc3ccccc3c21)Cc1cccc(OCC(=O)OCCO)c1` [Example 30, 2-Hydroxyethyl 2-{3-[(N-{3-[4-amino-2-(2-methoxyethyl)-1H-imidazo[4,5-c]quinolin-1-yl]propyl}-2-(diethylamino)acetamido)methyl]phenoxy}acetate], the negative logarithm of the EC50 (pEC50) at human TLR7 is 5.84.
Same read-out and setting: the result for `CCOC(=O)COc1cc(CN(CCCn2c(CCOC)nc3c(N)nc4ccccc4c32)C(=O)CN(CC)CC)ccc1C` [Example 66, Ethyl 2-{5-[(N-{3-[4-amino-2-(2-methoxyethyl)-1H-imidazo[4,5-c]quinolin-1-yl]propyl}-2-{diethylamino}acetamido)methyl]-2-methylphenoxy}acetate] reads 7.56; that for `CCOC(=O)COc1cccc(CN(CCCn2c(CCOC)nc3c(N)nc4ccccc4c32)C(=O)CN(CC)CC)c1OC` [Example 89, Ethyl 2-{3-[(N-{3-[4-amino-2-(2-methoxyethyl)-1H-imidazo[4,5-c]quinolin-1-yl]propyl}-2-{diethylamino}acetamido)methyl]-2-methoxyphenoxy}acetate], 7.02; that for `CCCCc1nc2c(N)nc3ccccc3c2n1CCCN(CCCN1CCOCC1)Cc1cccc(OCC(=O)OC)c1` [Example 21, Methyl (3-{[[3-(4-amino-2-butyl-1H-imidazo[4,5-c]quinolin-1-yl)propyl](3-morpholinopropyl)amino]methyl}phenoxy)acetate], 6.10.
On the same count and under the same terms, in the case of `COCCc1nc2c(N)nc3ccccc3c2n1CCCN(Cc1cccc(OCC(=O)OC)c1)C(=O)CN(C)C` [Example 17, Methyl (3-{[[3-(4-amino-2-(2-methoxyethyl)-1H-imidazo[4,5-c]quinolin-1-yl)propyl](N,N-dimethylglycyl)amino]methyl}phenoxy)acetate] it was 6.46; in that of `COCCc1nc2c(N)nc3ccccc3c2n1CCCN(Cc1cccc(OCC(=O)OC(C)C)c1)C(=O)CN(C)CCOC` [Example 115, Isopropyl 2-{3-[(N-{3-[4-amino-2-(2-methoxyethyl)-1H-imidazo[4,5-c]quinolin-1-yl]propyl}-2-{(2-methoxyethyl)(methyl)amino}acetamido)methyl]phenoxy}acetate], 6.76; in that of `CCCCc1nc2c(N)nc3ccccc3c2n1CCCN(Cc1cccc(OCC(=O)OC(C)C)c1F)C(=O)CN(C)C` [Example 165, Isopropyl 2-[3-({N-[3-(4-amino-2-butyl-1H-imidazo[4,5-c]quinolin-1-yl)propyl]-2-(dimethylamino)acetamido}methyl)-2-fluorophenoxy]acetate], 6.53.
On the same count and under the same terms, the result for `COCCc1nc2c(N)nc3ccccc3c2n1CCCCNC(=O)N(CCN1CCCCC1)Cc1ccc(F)c(OCC(=O)OC)c1` [Example 144, Methyl 2-{5-[(3-{4-[4-amino-2-(2-methoxyethyl)-1H-imidazo[4,5-c]quinolin-1-yl]butyl}-1-{2-(piperidin-1-yl)ethyl}ureido)methyl]-2-fluorophenoxy}acetate] reads 7.10; that for `CCCCc1nc2c(N)nc3ccccc3c2n1CCCN(Cc1ccc(OCC(=O)OC)cc1)C(=O)CN(C)C` [Example 5, Methyl (4-{[[3-(4-amino-2-butyl-1H-imidazo[4,5-c]quinolin-1-yl)propyl](N,N-dimethylglycyl)amino]methyl}phenoxy)acetate], 6.61; that for `CCOC(=O)COc1ccccc1CN(CCCn1c(CCOC)nc2c(N)nc3ccccc3c21)C(=O)CN(CC)CC` [Example 41, Ethyl 2-{2-[(N-{3-[4-amino-2-(2-methoxyethyl)-1H-imidazo[4,5-c]quinolin-1-yl]propyl}-2-(diethylamino)acetamido)methyl]phenoxy}acetate], 6.86.
